Measured values taken from PMC11484510, “Antibacterial activity of structurally diverse natural prenylated isobavachalcone derivatives” (RSC Advances, 2024).
Counter-ions that a name gives are not always drawn. Like-named read-outs stand apart in the source and are kept apart here.

Key:
MRSA ATCC 15187 = assay: MIC, broth microdilution (CLSI), Alamar blue; format: cell-based, Methicillin-resistant S. aureus; settings: MRSA ATCC 15187, 24 hours at 37 °C, read-out: Minimum inhibitory concentration (MIC) MRSA
Excerpt: (§1) The bacterial strains S. aureus ATCC 29213, MRSA ATCC 15187, E. coli ATCC 25922, and P. aeruginosa ATCC 27853 were obtained from ATCC (American Type Culture Collection). Cation-adjusted Mueller–Hinton broth (MHB; Becton–Dickinson, Cockeysville, MD) was used to determine the minimum inhibitory concentration (MIC). Mueller–Hinton agar (MHA; Becton–Dickinson) was used for minimum bactericidal concentration (MBC) studies. Alamar blue (Himedia) was used to detect the MIC value.
(§2) The antibacterial activity of the compounds against S. aureus ATCC 29213, MRSA ATCC 15187, E. coli ATCC 25922, and P. aeruginosa ATCC 27853 was determined through a broth microdilution method according to the guidelines of the Clinical and Laboratory Standards Institute (CLSI).[50] […] Growth control and media control were employed along with 2% DMSO as vehicle control.
(§3) In a 96-well flat bottom plate, the test compounds were two-fold serially diluted in Mueller Hinton Broth (MHB). The final concentrations of the compounds ranged from 100 to 0.08 μM. 100 μL of standardized bacterial inoculum with turbidity equivalent to 0.5 McFarland standard (1.5 × 10^8 CFU mL^−1) was diluted 1 : 100 (1.5 × 10^6 CFU mL^−1) in Mueller Hinton Broth and inoculated in the plates.[51] The plates were incubated for 24 hours at 37 °C. After incubation, 10 μL of freshly prepared Alamar blue (Himedia) was added to each well of the plate, and plates were further incubated at 37 °C for 30 minutes. After incubation, the fluorescence was measured at excitation/emission of 540–570/580–610 nm. The percentage inhibition and viability were calculated for the controls, and the Gompertz curve was utilized to estimate the minimum inhibitory concentration.

E. coli ATCC 25922 = assay: MIC, broth microdilution (CLSI), Alamar blue; format: cell-based; settings: E. coli ATCC 25922, 24 hours at 37 °C, read-out: Minimum inhibitory concentration (MIC) E. coli
Excerpt: as §1, §2, §3

P. aeruginosa ATCC 27853 = assay: MIC, broth microdilution (CLSI), Alamar blue; format: cell-based; settings: P. aeruginosa ATCC 27853, 24 hours at 37 °C, read-out: Minimum inhibitory concentration (MIC) P. aeruginosa
Excerpt: as §1, §2, §3

S. aureus ATCC 29213 = assay: MIC, broth microdilution (CLSI), Alamar blue; format: cell-based; settings: S. aureus ATCC 29213, 24 hours at 37 °C, read-out: Minimum inhibitory concentration (MIC) S. aureus
Excerpt: as §1, §2, §3

S. aureus = assay: Combinational study (checkerboard microdilution) with standard drugs; format: cell-based
Description: The Fractional Inhibitory Concentration Index (FICI) was calculated for each test compound and reference drug to find the combinational effect.
In a 96-well flat bottom plate, the reference drug with 4× MIC was serially diluted horizontally. The test compounds with 4× MIC were serially diluted two-fold outside the plate in 1.5 mL Eppendorf's using Mueller Hinton Broth (MHB). These two serially diluted compounds were combined to create drug-compound combinations in the plate. The reference drug (horizontally) and tested compounds (vertically) alone were serially diluted for MIC determination. 100 μL of the standardized bacterial inoculum with a turbidity equivalent to a 0.5 McFarland standard were diluted 1 : 100 in Mueller Hinton Broth and inoculated in the plates. The plates were incubated for 24 hours at 37 °C. After incubation, 10 μL of freshly prepared Alamar blue (Himedia) was added to each well of the plate, and the plates were further incubated at 37 °C for 30 minutes. After incubation, the plates were visually observed. […] The FICI was calculated using the formula FICI = FIC of compound + FIC of drug. The calculation followed is FICI (CA/(MICA)) + (CB/(MICB)), where CA is the MIC of the compound in combination, CB is the MIC of the drug in combination, and MICA and MICB are the MIC values of individual compounds and drugs, respectively. The range selection followed the interpretation criteria. The FICI range of 0.5 to 4 indicates indifference, ≤ or =0.5 indicates synergy and >4 indicates antagonism.[57]

[1] = Pseudomonas aeruginosa, ATCC27853, 24 h
[2] = Staphylococcus aureus, ATCC29213

MIC (MRSA ATCC 15187) [µM]	MIC (MRSA ATCC 15187; Staphylococcus aureus) [µM]	MIC (E. coli ATCC 25922) [µM]	MIC (E. coli ATCC 25922; Escherichia coli, ATCC25922) [µM]	MIC (P. aeruginosa ATCC 27853) [µM]	MIC (P. aeruginosa ATCC 27853; [1]) [µM]	MIC (S. aureus ATCC 29213) [µM]	MIC (S. aureus ATCC 29213; [2]) [µM]	MIC combination (drug) (S. aureus; MIC of ciprofloxacin in combination with IBC, S. aureus) [µM]	MIC combination (drug) (S. aureus; MIC of ciprofloxacin in combination with IBC-2, S. aureus) [µM]	MIC combination (drug) (S. aureus; MIC of ciprofloxacin in combination with IBC-3, S. aureus) [µM]	Compound
					2.8						NC[C@H]1O[C@H](O[C@H]2[C@H](O)[C@@H](O[C@H]3O[C@H](CO)[C@@H](O)[C@H](N)[C@H]3O)[C@H](N)C[C@@H]2N)[C@H](O)[C@@H](O)[C@@H]1O [Kanamycin, kanamycin sulfate, reference compound]
>100	> 100	>100	> 100	>100	> 100	>100	> 100				CC(C)=CCc1c(O)ccc(C(=O)/C=C/c2ccc(OCC(=O)Nc3cc(C)[nH]n3)cc2)c1O [IBC-9, (E)-2-(4-(3-(2,4-dihydroxy-3-(3-methylbut-2-en-1-yl)phenyl)-3-oxoprop-1-en-1-yl)phenoxy)-N-(5-methyl-1H-pyrazol-3-yl)acetamide]
>100	> 100	>100	> 100	>100	> 100	>100	> 100				CC(C)=CCc1c(O)ccc(C(=O)/C=C/c2ccc(OCC(=O)N3CCSCC3)cc2)c1O [IBC-10, (E)-1-(2,4-dihydroxy-3-(3-methylbut-2-en-1-yl)phenyl)-3-(4-(2-oxo-2-thiomorpholinoethoxy)phenyl)-prop-2-en-1-one]

The remaining lines, values behind:

Compound	MIC (MRSA ATCC 15187) [µM]	MIC (MRSA ATCC 15187; Staphylococcus aureus) [µM]	MIC (E. coli ATCC 25922) [µM]	MIC (E. coli ATCC 25922; Escherichia coli, ATCC25922) [µM]	MIC (P. aeruginosa ATCC 27853) [µM]	MIC (P. aeruginosa ATCC 27853; [1]) [µM]	MIC (S. aureus ATCC 29213) [µM]	MIC (S. aureus ATCC 29213; [2]) [µM]	MIC combination (drug) (S. aureus; MIC of ciprofloxacin in combination with IBC, S. aureus) [µM]	MIC combination (drug) (S. aureus; MIC of ciprofloxacin in combination with IBC-2, S. aureus) [µM]	MIC combination (drug) (S. aureus; MIC of ciprofloxacin in combination with IBC-3, S. aureus) [µM]
CC(C)=CCc1c(OCC(=O)N2CCOCC2)ccc(C(=O)/C=C/c2ccc(OCC(=O)N3CCOCC3)cc2)c1OCC(=O)N1CCOCC1 [IBC-5, (E)-2,2′-((2-(3-methylbut-2-en-1-yl)-4-(3-(4-(2-morpholino-2-oxoethoxy)phenyl)acryloyl)-1,3-phenylene)bis(oxy)) bis (1-morpholinoethan-1-one)]	>100	> 100	>100	> 100	>100	> 100	>100	> 100			
CC(C)=CCc1c(O)ccc(C(=O)/C=C/c2ccc(OCC(=O)Nc3ccc(Cl)cn3)cc2)c1O [IBC-6, (E)-N-(5-chloropyridin-2-yl)-2-(4-(3-(2,4-dihydroxy-3-(3-methylbut-2-en-1-yl)phenyl)-3-oxoprop-1-en-1-yl)phenoxy) acetamide]	>100	> 100	>100	> 100	>100	> 100	>100	> 100			
COc1ccc(/C=C/C(=O)c2ccc(OC)c(CC=C(C)C)c2OC)cc1 [IBC-4, (E)-1-(2,4-dimethoxy-3-(3-methylbut-2-en-1-yl)phenyl)-3-(4-methoxyphenyl)prop-2-en-1-one]	>100	> 100	>100	> 100	>100	> 100	>100	> 100			
CC(C)=CCc1c(O)ccc(C(=O)/C=C/c2ccc(OCC(=O)Nc3c(C)n(C)n(-c4ccccc4)c3=O)cc2)c1O [IBC-7, (E)-2-(4-(3-(2,4-dihydroxy-3-(3-methylbut-2-en-1-yl)phenyl)-3-oxoprop-1-en-1-yl)phenoxy)-N-(1,5-dimethyl-3-oxo-2-phenyl-2,3-dihydro-1H-pyrazol-4-yl) acetamide]	>100	> 100	>100	> 100	>100	> 100	>100	> 100			
CC(C)=CCc1c(OCC(=O)N2CCCC2)ccc(C(=O)/C=C/c2ccc(OCC(=O)N3CCCC3)cc2)c1O [IBC-8, (E)-1-(2-hydroxy-3-(3-methylbut-2-en-1-yl)-4-(2-oxo-2-(pyrrolidin-1-yl)ethoxy)phenyl)-3-(4-(2-oxo-2-(pyrrolidin-1-yl)ethoxy)phenyl) prop-2-en-1-one]	>100	> 100	>100	> 100	>100	> 100	>100	> 100			
O=C(O)c1cn(C2CC2)c2cc(N3CCNCC3)c(F)cc2c1=O [Ciprofloxacin, ciprofloxacin hydrochloride monohydrate, reference compound]									0.156	0.3125	0.3125
